# Data published in PMC5063381, “Characterization of the Neisseria meningitidis Helicase RecG” (PLoS ONE, 2016).
# B1: Neisseria meningitidis single-stranded DNA-binding protein SSB (natural protein, Neisseria meningitidis strain MC58, UniProt P66848 1-174, looked up)
# chain: MSLNKVILIGRLGRDPEVRYMPNGEAVCNFSVATSETWNDRNGQRVERTEWHNITMYRKLAEIAGQYLKKGGLVYLEGRIQSRKYQGKDGIERTAYDIVANEMKMLGGRNENSGGAPYEEGYGQSQEAYQRPAQQSRQPASDAPSHPQEAPAAPRRQPVPAAAPVEDIDDDIPF
# modifications: Monolith NT Protein Labeling Kit RED-NHS dye, degree of labelling 0.65 (in the MST only)
# notes: It was unlabelled in the gel filtration and RED-NHS labelled in the MST; also called SSBNm; source: plasmid pEH1 (pQE-30 harboring ssb from Nm MC58)
# Tests used:
# [1] = biological target: T1, RecGNm (Neisseria meningitidis, UniProt Q9JY17); test: TLC ATPase assay with [gamma-32P]ATP; format: biochemical; details: 100 nM DNA cofactor (branched DNA), 2 mM MgCl2, pH 7.5, 37 °C; labelled compound as tracer
# T1 construct: gene recG; ORF in pET28b(+) (pGTB1, NdeI/XhoI), N-terminal 6xHis-tag, expressed in E. coli ER2566; Ni-NTA and Superdex 75
# T1 sequence (Q9JY17 1-680): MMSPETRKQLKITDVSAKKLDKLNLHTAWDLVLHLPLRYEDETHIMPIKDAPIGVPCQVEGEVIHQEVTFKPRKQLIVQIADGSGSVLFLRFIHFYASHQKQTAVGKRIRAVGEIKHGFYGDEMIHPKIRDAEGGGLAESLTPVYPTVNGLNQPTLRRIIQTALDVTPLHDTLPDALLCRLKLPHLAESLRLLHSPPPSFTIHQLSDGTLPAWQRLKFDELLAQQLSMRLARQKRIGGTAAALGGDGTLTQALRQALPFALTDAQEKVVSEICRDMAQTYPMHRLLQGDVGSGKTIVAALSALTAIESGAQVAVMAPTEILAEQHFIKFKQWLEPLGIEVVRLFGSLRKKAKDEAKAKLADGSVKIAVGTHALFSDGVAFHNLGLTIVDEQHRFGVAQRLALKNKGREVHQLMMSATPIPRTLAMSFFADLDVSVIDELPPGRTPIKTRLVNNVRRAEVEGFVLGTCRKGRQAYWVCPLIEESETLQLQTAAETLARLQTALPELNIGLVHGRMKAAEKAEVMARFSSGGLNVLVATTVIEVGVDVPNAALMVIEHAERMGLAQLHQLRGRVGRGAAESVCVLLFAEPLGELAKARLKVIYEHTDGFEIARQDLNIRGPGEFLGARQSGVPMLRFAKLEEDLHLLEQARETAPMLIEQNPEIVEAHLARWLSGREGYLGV
# [2] = biological target: T2, Neisseria meningitidis DNA repair/recombination helicase RecG (Neisseria meningitidis strain MC58, UniProt Q9JY17 1-680); test: MST; 21 nM RED-NHS labelled SSBNm, RecGNm titrated; 20 mM HEPES pH 7.5, 300 mM NaCl, 0.05% Tween 20, 0.1% Pluronic F-127, 0.1% PEG 8000, 2 mM DTT; 22°C, 40% MST power; details: both partners purified
# T2 construct: RecG helicase of Neisseria meningitidis strain MC58; the ORF was amplified from genomic DNA and cloned into pET28b(+) between XhoI and NdeI (plasmid pGTB1); also called RecGNm; Nm RecG; source: E. coli ER2566, purified (Ni-NTA, gel filtration on Superdex 75)
# T2 sequence (looked up): T1 sequence (Q9JY17 1-680)
Molecule,% ATP hydrolysis [1],Kd [2] [nM]
Nc1ncnc2c1ncn2[C@@H]1O[C@H](COP(=O)(O)OP(=O)(O)OP(=O)(O)O)[C@@H](O)[C@H]1O [ATP],RecGNm displayed comparable capacity of ATP hydrolysis in the presence of different types of branched,–
B1,–,558 ± 139
